Source: patent US10787447B2, “Pharmaceutical compounds” (Heptares Therapeutics Limited, priority 2018, dated 2020)
Blank lines part the entries; values can stand above or below the compound they belong to.

Columns and labels:
Format in all cases: cell-based
[1] = biological target: T1, human muscarinic M2 receptor (Homo sapiens, UniProt P08172); assay: Alphascreen Surefire phospho-ERK1/2 functional assay, M2; conditions: for EC50: pEC50 M2, CHO cells stably expressing human M2, phospho-ERK1/2; for % Emax cf. ACh, M2: CHO cells stably expressing human M2
T1 sequence (P08172 1-466): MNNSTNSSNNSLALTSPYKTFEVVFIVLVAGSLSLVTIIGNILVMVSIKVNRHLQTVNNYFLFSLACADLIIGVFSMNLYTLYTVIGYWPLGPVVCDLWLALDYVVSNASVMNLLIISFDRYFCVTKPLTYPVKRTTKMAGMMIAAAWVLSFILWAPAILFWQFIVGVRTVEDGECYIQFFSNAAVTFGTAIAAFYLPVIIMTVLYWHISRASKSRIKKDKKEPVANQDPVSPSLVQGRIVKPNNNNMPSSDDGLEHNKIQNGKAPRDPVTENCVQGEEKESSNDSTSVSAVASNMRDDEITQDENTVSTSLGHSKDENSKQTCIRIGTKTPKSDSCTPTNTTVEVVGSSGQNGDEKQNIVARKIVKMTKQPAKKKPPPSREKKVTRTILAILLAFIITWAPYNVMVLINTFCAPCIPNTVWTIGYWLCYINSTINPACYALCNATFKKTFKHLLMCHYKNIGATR
Procedure: (§1) ERK1/2 phosphorylation is a downstream consequence of both Gq/11 and Gi/o protein coupled receptor activation, making it highly suitable for the assessment of M1, M3 (Gq/11 coupled) and M2, M4 receptors (Gi/o coupled), rather than using different assay formats for different receptor subtypes. CHO cells stably expressing the human muscarinic M1, M2, M3 or M4 receptor were plated (25K/well) onto 96-well tissue culture plates in MEM-alpha+10% dialysed FBS. Once adhered, cells were serum-starved overnight. Agonist stimulation was performed by the addition of 5 μL agonist to the cells for 5 min (37° C.). Media was removed and 50 μL of lysis buffer added. After 15 min, a 4 μL sample was transferred to 384-well plate and 7 μL of detection mixture added.
(§2) Isomer assignment (Isomer 1, Isomer 2, etc.) is based on the retention time of the compound using the separation technique that was performed in the final purification step. By implication, this could be reversed phase HPLC, chiral HPLC or chiral SFC retention time, and this will vary from compound to compound.

[2] = biological target: T2, human muscarinic M3 receptor (Homo sapiens, UniProt P20309); assay: Alphascreen Surefire phospho-ERK1/2 functional assay, M3; conditions: for Emax: CHO, read-out: % Emax cf. ACh, M3, CHO cells stably expressing human M3; for Emax / % Emax cf. ACh, M3: Emax relative to ACh; for EC50: pEC50 M3, CHO cells stably expressing human M3, phospho-ERK1/2; for % Emax cf. ACh, M3: CHO cells stably expressing human M3
T2 construct: expressed in transfected cells
T2 sequence (P20309 whole entry): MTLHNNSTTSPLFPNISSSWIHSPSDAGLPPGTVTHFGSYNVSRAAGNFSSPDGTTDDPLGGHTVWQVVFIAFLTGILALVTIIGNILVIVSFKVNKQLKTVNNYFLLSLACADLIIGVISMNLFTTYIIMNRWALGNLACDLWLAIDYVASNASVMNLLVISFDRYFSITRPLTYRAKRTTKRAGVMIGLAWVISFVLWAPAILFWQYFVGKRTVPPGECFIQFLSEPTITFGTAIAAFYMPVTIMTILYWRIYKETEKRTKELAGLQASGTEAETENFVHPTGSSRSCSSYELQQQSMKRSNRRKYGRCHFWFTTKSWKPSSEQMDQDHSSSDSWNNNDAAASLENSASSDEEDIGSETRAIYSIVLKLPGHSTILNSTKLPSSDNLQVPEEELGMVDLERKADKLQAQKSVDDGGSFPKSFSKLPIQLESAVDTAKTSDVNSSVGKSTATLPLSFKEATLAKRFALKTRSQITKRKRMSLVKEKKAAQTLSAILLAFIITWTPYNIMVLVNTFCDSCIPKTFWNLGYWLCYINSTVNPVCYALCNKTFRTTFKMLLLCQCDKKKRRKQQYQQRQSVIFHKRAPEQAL
Procedure: as §1, §2

[3] = biological target: T3, human muscarinic M4 receptor (Homo sapiens, UniProt P08173); assay: Alphascreen Surefire phospho-ERK1/2 functional assay, M4; conditions: for Emax: CHO, read-out: % Emax cf. ACh, M4, CHO cells stably expressing human M4; for Emax / % Emax cf. ACh, M4: Emax relative to ACh; for EC50: pEC50 M4, CHO cells stably expressing human M4, phospho-ERK1/2; for % Emax cf. ACh, M4: CHO cells stably expressing human M4
T3 sequence (P08173 1-479): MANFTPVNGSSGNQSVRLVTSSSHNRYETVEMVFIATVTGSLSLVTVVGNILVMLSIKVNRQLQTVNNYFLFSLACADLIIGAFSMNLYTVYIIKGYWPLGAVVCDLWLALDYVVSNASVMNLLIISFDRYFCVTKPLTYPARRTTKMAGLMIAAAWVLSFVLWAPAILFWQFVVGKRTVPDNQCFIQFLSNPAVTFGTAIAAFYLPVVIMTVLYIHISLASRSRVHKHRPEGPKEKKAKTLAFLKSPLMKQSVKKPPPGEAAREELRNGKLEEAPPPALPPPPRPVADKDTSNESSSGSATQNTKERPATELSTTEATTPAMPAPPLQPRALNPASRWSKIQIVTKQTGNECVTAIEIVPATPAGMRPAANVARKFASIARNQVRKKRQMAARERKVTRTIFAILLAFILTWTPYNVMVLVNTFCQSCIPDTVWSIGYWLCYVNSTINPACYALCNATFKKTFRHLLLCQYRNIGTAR
Procedure: as §1, §2

[4] = biological target: T4, human muscarinic M1 receptor (Homo sapiens, UniProt P11229); assay: Alphascreen Surefire phospho-ERK1/2 functional assay, M1; conditions: for EC50: pEC50 M1, CHO cells stably expressing human M1, phospho-ERK1/2; for % Emax cf. ACh, M1: CHO cells stably expressing human M1
T4 sequence (P11229 1-460): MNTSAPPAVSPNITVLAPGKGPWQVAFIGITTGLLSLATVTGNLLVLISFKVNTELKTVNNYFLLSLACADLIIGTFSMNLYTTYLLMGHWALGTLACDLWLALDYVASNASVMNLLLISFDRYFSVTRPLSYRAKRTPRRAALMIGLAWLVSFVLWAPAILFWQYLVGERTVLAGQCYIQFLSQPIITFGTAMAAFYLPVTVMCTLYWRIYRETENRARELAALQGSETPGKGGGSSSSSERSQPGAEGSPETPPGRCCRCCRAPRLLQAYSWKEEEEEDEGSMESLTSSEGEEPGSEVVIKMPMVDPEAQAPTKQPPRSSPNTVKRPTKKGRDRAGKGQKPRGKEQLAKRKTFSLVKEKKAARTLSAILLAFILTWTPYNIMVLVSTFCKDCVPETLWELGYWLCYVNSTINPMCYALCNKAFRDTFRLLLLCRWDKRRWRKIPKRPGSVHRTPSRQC
Procedure: as §1, with “Functional assays were performed using the Alphascreen Surefire phospho-ERK1/2 assay (Crouch & Osmond, Comb. Chem. High Throughput Screen, 2008). ERK1/2” for “ERK1/2”
as §2, with “For the vast majority of examples at least two diastereomers exist and these have been separated, unless otherwise stated, using the techniques of reversed phase HPLC, chiral HPLC or chiral SFC. Isomer assignment” for “Isomer assignment”

[5] = Emax relative to ACh, listed as 1-2 Isomer 1
[6] = Emax relative to ACh, listed as 1-2 Isomer 2
[7] = Emax relative to ACh, listed as 1-3 Isomer 1
[8] = Emax relative to ACh, listed as 5-5 Isomer 2
[9] = Emax relative to ACh, listed as 6-4 Isomer 1

Structure (SMILES): CCOC(=O)N1C2COCC1CC(N1CCC(n3cccn3)CC1)C2 (single isomer, unassigned) [Example 1-1 Isomer 1, Ethyl 7-[4-(1H-pyrazol-1-yl)piperidin-1-yl]-3-oxa-9-azabicyclo[3.3.1]nonane-9-carboxylate]
Emax ([1]; CHO, read-out: % Emax cf. ACh, M2, CHO cells stably expressing human M2, Emax relative to ACh): 57%
EC50 [1]: 575 nM
Emax [2]: 13%
EC50 [2]: > 20000 nM
Emax [3]: 100%
EC50 [3]: 52.5 nM
Emax ([4]; CHO, read-out: % Emax cf. ACh, M1, CHO cells stably expressing human M1, Emax relative to ACh): 116%
EC50 [4]: 427 nM

Structure (SMILES): CCOC(=O)N1C2COCC1CC(N1CCC(n3cc(Cl)cn3)CC1)C2 (single isomer, unassigned) [Example 1-2 Isomer 1, Ethyl 7-[4-(4-chloro-1H-pyrazol-1-yl)piperidin-1-yl]-3-oxa-9-azabicyclo[3.3.1]nonane-9-carboxylate]
% Emax cf. ACh, M2 [1, 5]: 69%
EC50 [1]: 87.1 nM
% Emax cf. ACh, M3 [2]: 2%
% Emax cf. ACh, M4 ([3]; listed as 1-2 Isomer 1): 78%
EC50 [3]: 2.88 nM
% Emax cf. ACh, M1 [4, 5]: 96%
EC50 [4]: 15.1 nM

Structure (SMILES): CCOC(=O)N1C2COCC1CC(N1CCC(n3cc(Cl)cn3)CC1)C2 (single isomer, unassigned) [Example 1-2 Isomer 2, Ethyl 7-[4-(4-chloro-1H-pyrazol-1-yl)piperidin-1-yl]-3-oxa-9-azabicyclo[3.3.1]nonane-9-carboxylate]
% Emax cf. ACh, M2 [1, 6]: 10%
EC50 [1]: > 20000 nM
Emax [2]: 2%
EC50 [2]: > 20000 nM
% Emax cf. ACh, M4 ([3]; listed as 1-2 Isomer 2): 51%
EC50 [3]: 13.2 nM
% Emax cf. ACh, M1 [4, 6]: 67%
EC50 [4]: 77.6 nM

Structure (SMILES): CCOC(=O)N1C2COCC1CC(N1CCC(n3cc(C)cn3)CC1)C2 (single isomer, unassigned) [Example 1-3 Isomer 1, Ethyl 7-[4-(4-methyl-1H-pyrazol-1-yl)piperidin-1-yl]-3-oxa-9-azabicyclo[3.3.1]nonane-9-carboxylate]
% Emax cf. ACh, M2 [1, 7]: 112%
EC50 [1]: 282 nM
% Emax cf. ACh, M3 ([2]; listed as 1-3 Isomer 1): 40%
EC50 [2]: 2510 nM
Emax [3]: 99%
EC50 [3]: 7.24 nM
% Emax cf. ACh, M1 [4, 7]: 124%
EC50 [4]: 55 nM

Structure (SMILES): CCOC(=O)N1C2COCC1CC(N1CCC3(CC1)C(=O)Nc1ccccc13)C2 (single isomer, unassigned) [Example 5-5 Isomer 2, Ethyl 7-(2-oxo-1,2-dihydro-1′H-spiro[indole-3,4′-piperidin]-1′yl)-3-oxa-9-azabicyclo[3.3.1]nonane-9-carboxylate]
% Emax cf. ACh, M2 [1, 8]: 67%
EC50 [1]: 75.9 nM
% Emax cf. ACh, M4 [3]: 108%
EC50 [3]: 8.51 nM
% Emax cf. ACh, M1 [4, 8]: 108%
EC50 [4]: 53.7 nM

Structure (SMILES): CCOC(=O)N1C2COCC1CC(N1CCC(N(CC3(C)CCC3)C(C)=O)CC1)C2 (single isomer, unassigned) [Example 6-4 Isomer 1]
% Emax cf. ACh, M2 [1, 9]: 33%
EC50 [1]: 363 nM
% Emax cf. ACh, M4 ([3]; listed as 6-4 Isomer 1): 80%
EC50 [3]: 42.7 nM
% Emax cf. ACh, M1 [4, 9]: 103%
EC50 [4]: 14.5 nM

Structure (SMILES): COC(=O)N1C2COCC1CC(N1CCC(N(CC3(C)CCC3)C(C)=O)CC1)C2 (single isomer, unassigned) [Example 8-1 Isomer 2, Methyl 7-(4-(N-((1-methylcyclobutyl)methyl)acetamido)piperidin-1-yl)-3-oxa-9-azabicyclo[3.3.1]nonane-9-carboxylate]
% Emax cf. ACh, M4 ([3]; listed as 8-1 Isomer 2): 47%
EC50 [3]: 575 nM
% Emax cf. ACh, M1 ([4]; Emax relative to ACh, listed as 8-1 Isomer 2): 86%
EC50 [4]: 234 nM

Structure (SMILES): COC(=O)N1C2COCC1CC(N1CCC(N(Cc3ccccc3)C(C)=O)CC1)C2 (single isomer, unassigned) [Example 8-2 Isomer 1, Methyl 7-(4-(N-benzylacetamido)piperidin-1-yl)-3-oxa-9-azabicyclo[3.3.1]nonane-9-carboxylate]
% Emax cf. ACh, M4 ([3]; listed as 8-2 Isomer 1): 54%
EC50 [3]: 661 nM
% Emax cf. ACh, M1 ([4]; Emax relative to ACh, listed as 8-2 Isomer 1): 99%
EC50 [4]: 79.4 nM

Structure (SMILES): COC(=O)N1C2COCC1CC(N1CCC(N(Cc3ccccc3)C(C)=O)CC1)C2 (single isomer, unassigned) [Example 8-2 Isomer 2, Methyl 7-(4-(N-benzylacetamido)piperidin-1-yl)-3-oxa-9-azabicyclo[3.3.1]nonane-9-carboxylate]
% Emax cf. ACh, M4 ([3]; listed as 8-2 Isomer 2): 27%
EC50 [3]: > 20000 nM
% Emax cf. ACh, M1 ([4]; Emax relative to ACh, listed as 8-2 Isomer 2): 60%
EC50 [4]: 603 nM

% Emax cf. ACh, M3 [2]: 115%
% Emax cf. ACh, M4 [3]: 110%
Structure (SMILES): CC(=O)OCC[N+](C)(C)C [ACh]
